Data from US20260317308A1, “A SEQUENCE SELECTIVE DNA BINDING MOLECULE (SYNGRADER)” (ST. JUDE CHILDREN'S RESEARCH HOSPITAL, INC., priority 2023, published 2026).

Tests used:
TCF3-PBX1-HaloTag = assay: P2RY10 luciferase reporter assay in HEK293T cells expressing Doxycycline-inducible TCF3-PBX1-HaloTag; assay type: cell-based, human
Procedure: Cells were transfected with P2RY10-Luciferase reporter plasmid DNA which contains the 282 bp P2RY10 promoter sequence cloned downstream of a minimal TATA box promoter. After 24 hours, the cells were treated with 0.70 and 1.0 μM PBX-SynTEF2 (SnTF2), SynTEF-PBX-DRG1 (DRG1), and SynTEF-PBX-DRG2 (DRG2). The SynTEF-PBX-DRG1 compound carries the Thalidomide ligand for recruitment of the Cerbelon E3-Ligase, and SynTEF-PBX-DRG2 has a VHL ligand for the recruitment of the VHL E3-Ligase. Doxycycline (DOX) was added at 0.1 ug/mL concentration to induce TCF3-PBX1-HaloTag expression, and 48 hours after DOX addition, NanoGlo Luciferase expression (Promega) was measured in the medium (Luciferase protein is secreted by the cells). Luciferase activity was calculated as Fold Change compared to “DMSO without DOX” control cells (purple bar), Error bars: Standard deviation. N>6 biological replicates.

[1] = system: NALM6 (N6) Acute Lymphoblastic Leukemia (ALL) B cells expressing TCF3-PBX1-HaloTag; assay: Cell viability assay (CellTiterGlo) in NALM6 ALL cells with Doxycycline-inducible TCF3-PBX1-HaloTag, co-transfected with P2RY10 and CMV luciferase reporter plasmids; assay type: cell-based; conditions: for loss in cell viability: loaded on WT TR DNA-Aptamer, vs DMSO no DOX
Procedure: The N6-TCF3-PBX1-HaloTag cells were Nucleofected (Lonza) with P2RY10-Luciferase and CMV promoter Luciferase reporter plasmid DNAs. After 24 hours, cells were treated with either wildtype (WT) or Mutant (MT) Transferrin Receptor (TR) WGGWWW DNA-Aptamers pre-loaded with PBX-SynTEF-FL (SnTF-FL), SynTEF-PBX-DRG1 (DRG1), and SynTEF-PBX-DRG2 (DRG2). The WT and MT DNA-Aptamers contain WGGWWW tail duplex DNA sequences that bind the PBX-SynTEF payloads, but only WT DNA-Aptamers can bind to TR present on the cell surface of NALM6 ALL cells, resulting in TR-mediated cellular internalization of the polyamide compounds. The MT DNA-Aptamer, has a GG to AA dinucleotide substitution which prevents binding to the TR (*see Cheng et al, 2022). Thus, cells treated with the MT DNA-Aptamer-SynTEF complexes serve as negative controls, since without a functional Aptamer, it is unlikely that the polyamides are taken up by the NALM6 cells. Doxycycline (DOX) was added at 0.1 ug/mL concentration to induce TCF3-PBX1-HaloTag expression, and 48 hours after DOX addition, cell viability was measured using CellTiterGlo reagent (Promega) which detects ATP present only in live cells. CellTiterGlo activity was calculated as Fold Change compared to “DMSO no DOX” treated cells which had the highest cell viability (dark blue bars). Error bars: Standard deviation. N>6 biological replicates.

CSCCC(NC(=O)C(Cc1c[nH]c2ccccc12)NC(=O)C1CCCN1C(=O)C(Cc1ccc(O)cc1)NC(=O)C(Cc1ccccc1)NC(C)=O)C(=O)NC(CCCCNC(=O)CCOCCOCCOCCOCCOc1cccc2c1C(=O)N(C1CCC(=O)NC1=O)C2=O)C(=O)NCC(=O)NCCOCCOCCOCCC(=O)NCCCN(C)CCCNC(=O)CCNC(=O)c1cc(NC(=O)c2cc(NC(=O)c3cc(NC(=O)c4cc(NC(=O)CCCNC(=O)c5cc(NC(=O)c6cc(NC(=O)c7nc(NC(=O)c8nccn8C)cn7C)cn6C)cn5C)cn4C)cn3C)cn2C)cn1C (stereo not drawn) [SynTEF-PBX-DRG1]
further increase of Luciferase expression above DMSO plus DOX baseline (in words) (TCF3-PBX1-HaloTag; both 0.70 and 1.0 μM, with DOX): fail to further increase Luciferase expression
activity of the oncogenic TCF3-PBX1 fusion in cell-based reporters (in words) (TCF3-PBX1-HaloTag; cell-based reporters): reduced activity
toxicity to the cells (in words) ([1]; NALM6 cells, without DOX): toxic to the cells but only when internalized
loss in cell viability ([1]; with DOX 0.1 ug/mL, 48 h): ~ 85%
cell viability compared to +DOX DMSO and +DOX SynTF-FL cells (in words) ([1]; with DOX, loaded on MT DNA-Aptamer (negative control)): comparable viability
loss in cell viability ([1]; without DOX, both P2RY10 and CMV nucleofected cells): 70-80%
